Publication PMC11755785 (Langmuir, 2025)

How the values were obtained:
Assay type in all cases: physicochemical
[1] = 1H NMR titration of keto-enol and diketo tautomeric species
Method: ^1H NMR measurements were conducted using a 400 MHz NMR spectrometer (JNM-ECZ 400 S, Japan Electronics Co., Ltd., Tokyo, Japan). Sample solutions were prepared using D2O and methanol-d4 as the protic solvent, acetonitrile-d3 as the aprotic solvent, and their mixtures, with sample concentrations exceeding 1.5% (w/v). The chemical shifts of the samples were calibrated using the internal tetramethylsilane (TMS) signal as the zero point, whereas the solvent signals in the literature served as reference points. When sodium salts were required, the neutral AVB species in D2O were dissolved in equimolar amounts of aqueous NaOH and methanol-d4, followed by drying under reduced pressure in a rotary evaporator and heating to dryness below Tm of the sodium salts. The formation of sodium salts was confirmed by measuring Tm using a differential scanning calorimeter (DSC8230, Rigaku Co., Ltd., Tokyo, Japan).
In the one-dimensional (1D) ^1H NMR spectra, the integral intensities correspond to the relative stoichiometry of protons for the species, except for the signals assigned to the stable isotopes of deuterated solvents. We could recognize the aromatic proton signals of AVB, but the corresponding signals sometimes overlapped between its keto-enol and diketo species, depending upon the solvent composition. The signals of the aromatic protons at the para positions to the keto/enol substituents were neglected because of the high probability of overlap, in which the chemical shift drifts, Δδ, related to the shielding effect are not noticeably accompanied by the electronic states in the keto/enol substituents.
We chose the signals of the aromatic protons at the ortho positions and the aliphatic protons at the ortho substituents (tert-butyl and methoxy groups) to keto/enol substituents and measured their integral intensities. Using the simultaneous equations built as linear combinations of integral values for the isolated and overlapping signals, we determined the molar ratio of the keto-enol and diketo species.

[2] = UVA1 (365 nm) photodegradation in isochoric acetonitrile/water solvent; conditions: UVA1 365 nm, 25 μM
Method: (§1) The samples were obtained after passage for appropriate periods and measured using an UV–vis spectrophotometer in the maximum range between 200 and 700 nm (arranged on demand) from long wavelengths toward short wavelengths to avoid unnecessary irradiation of the UV region. To obtain HPLC chromatograms, aliquots of the UV-irradiated solution were obtained by pipetting at 0, 1/5, 1/2, 1, 2, 3, 4, 24, 48, 72, 96, 120, 144, and 168 h for AVB and at 0, 1, 2, 3, and 18 h for CUR. To obtain those of OXB in the absence or presence of β-CD, the invariable samples were certified at 0 and 48 h. For the samples in acetonitrile aqueous solution or methanol aqueous solution at a ratio of 7:3, the time evolution of the UVA1 irradiated solution was examined under similar conditions.

[3] = UVA1 (365 nm) photodegradation in aqueous buffer, UV–vis spectra / RP-HPLC; conditions: for UVA1 photodegradation (spectral change): 50 μM, aqueous; for diketo increase to the keto-enol decrease: UVA1 365 nm
Method: as §1

[4] = 70% methanol (methanol-d4/D2O = 7:3)
[5] = isochoric acetonitrile/water solvent

## p-tert-butyl-p-methoxydibenzoylmethane [AVB]
[1]; [4]
  molar ratio of diketo species: 15.3%
  molar ratio of keto-enol species: 84.7%
[1]; [5]
  molar ratio of diketo species: 9.3%
  molar ratio of keto-enol species: 90.7%
[2]
  effect of equimolar and 4 mM β-CD on photodegradation velocity / first-order rate: reduced the photodegradation velocity
[3]; absence of β-CD
  UVA1 photodegradation (spectral change): gradually photodegraded
[3]; presence of β-CD
  UVA1 photodegradation (spectral change): insignificantly degraded
[3]; 25 μM β-CD
  diketo increase to the keto-enol decrease: 20.1%
[3]; 4 mM β-CD
  diketo increase to the keto-enol decrease: 23.9%
[3]; no β-CD
  diketo increase to the keto-enol decrease: 19.3%
